Results from patent US12533429B2, “Surface enhanced raman scattering nanoparticles and their use in detecting and imaging oxidative stress” (The Board of Trustees of the Leland Stanford Junior …, priority 2019, dated 2026).
Several values for one entry are separate records, joined by “and”; a condition that tells them apart may be missing. Identical values can stand only once.

What was measured:
[1] = system: AsPC-1 cells; test: DCFH-DA fluorometric ROS assay in AsPC-1 cells; assay type: cell-based, human; conditions: DCFH-DA 40 μM, 24 h
Procedure: (§1) To measure ROS, a traditional fluorometric assay using Dichlorofluorescein diacetate (DCFH-DA; Sigma Aldrich, USA) was performed. DCFH-DA is a cell-permeable non-fluorescent probe which is hydrolyzed by intracellular esterases, thereby trapping it within the cell. This non-fluorescent molecule can then be oxidized by ROS, which turns it into fluorescent dichlorofluorescein (DCF). The level of intracellular fluorescence is therefore proportional to the amount of intracellular ROS production with a linear dynamic range [12]. All experiments were performed in 12-well plates. A431 and AsPC-1 cells were seeded in 12-well culture plates achieving a cell density of 50,000, 100,000, 200,000 and 300,000 cells/well. Cells were incubated with DCFH-DA (40 μM, 200 μL) in DMEM-10% FBS-50 U/mL penicillin-50 μg/mL streptomycin culture medium at 37° C. in a humidified incubator containing 5% CO2/95% air for 24 h. The fluorescence from DCF was then measured using a microplate spectrophotometer system with […].

[2] = system: A431 cells; test: DCFH-DA fluorometric ROS assay in A431 cells; assay type: cell-based, human; conditions: DCFH-DA 40 μM, 24 h
Procedure: as §1

[3] = system: AD-MSCs; test: DCFH-DA fluorometric ROS assay in AD-MSCs; assay type: cell-based; conditions: 300,000 AD-MSCs

**Q.** Dichlorofluorescein diacetate [DCFH-DA] was tested. Which “ROS production, DCFH-DA assay” value ([1]; 50,000 AsPC-1 cells) did it give?
**A.** Its value is 0.15±0.04 absorbance units.

**Q.** And the “ROS production, DCFH-DA assay” value ([1]; 100,000 AsPC-1 cells)?
**A.** Its value is 0.51±0.06 absorbance units.

**Q.** And the “ROS production, DCFH-DA assay” value ([1]; 200,000 AsPC-1 cells)?
**A.** The value was 0.82±0.05 absorbance units.

**Q.** What about the “ROS production, DCFH-DA assay” value ([2]; 50,000 A431 cells) of the same substance?
**A.** The value was 0.17±0.01 absorbance units.

**Q.** What about the “ROS production, DCFH-DA assay” value ([2]; 100,000 A431 cells) of the same substance?
**A.** The value was 0.49±0.01 absorbance units.

**Q.** What about the “ROS production, DCFH-DA assay” value ([2]; 200,000 A431 cells) of the same substance?
**A.** Its value is 0.96±0.07 absorbance units.

**Q.** What about the “ROS production, DCFH-DA assay” value ([2]; 300,000 A431 cells) of the same substance?
**A.** Its value is 1.06±0.05 absorbance units and 1.10±0.04 absorbance units.

**Q.** And the “ROS production, DCFH-DA assay” value [3]?
**A.** The value was 1.06±0.05 absorbance units.
